From patent US20200277373A1, “ANTI-TREM2 ANTIBODIES AND METHODS OF USE THEREOF” (Denali Therapeutics Inc., priority 2017, published 2020)
Each block holds one compound with its values, some of them ahead of it.

Legend:
Assay type in all cases: cell-based
TREM2 = molecular target: T1, TREM2 (Homo sapiens, UniProt Q9NZC2); assay: Liposome stimulation pSyk AlphaLISA, HEK293 overexpressing TREM2 and DAP12; conditions: liposomes 30% lipid/70% PC (KLA 10%/90%), fold change over HBSS
T1 construct: expressed in transfected cells
Protocol: (§1) Lipids were purchased from Avanti Polar Lipids (Alabaster, Ala.) or Echelon Biosciences (Salt Lake City, Utah). Each screened lipid was resuspended in chloroform and added at 30 mole percent composition to 70 mole percent phosphatidylcholine (PC; 1,2-dioleoyl-sn-glycero-3-phosphocholine, Avanti Polar Lipids). Kdo2-Lipid A was added at a 10 mole percent composition with 90 mole percent PC. Lipid mixes were dried under nitrogen gas and resuspended in HBSS at a concentration of 4 mg/mL. Mixes were vortexed or briefly sonicated until resuspended, then bath sonicated for 1-5 minutes. Liposomes were used for 1-2 weeks. 3 independent batches of liposomes were used in experiments.
(§2) HEK293 cell lines overexpressing TREM2 and DAP12, mutant TREM2-R47H and DAP12, or DAP12 alone were plated in 96-well PDL-coated plates at a density of 40,000 cells per well and cultured for 36-48 hours until 90-100% confluent.
(§3) Cell culture medium was removed and cells were washed once with 200ul HBSS. Liposomes were diluted in HBSS in concentrations ranging from 0.03125 mg/mL to 2 mg/mL, then 50 μl was added to wells in 2-3 technical replicates per plate. Each plate contained HBSS negative control wells, 100% PC liposome control, 5 μg/mL agonist anti-TREM2 positive control (Abnova; Taiwan; # MAB2056), and 5 μg/mL mouse IgG3 isotype control (R&D Systems; Minneapolis, Minn.; # MAB007). Stimuli were incubated with cells for 5 minutes at 37° C., 5% CO2, liposomes were removed, and plates were frozen at −80° C.
(§4) Cells were lysed for 30 minutes to 1 hour on ice in 50 ul/well Cell Lysis Buffer (Cell Signaling Technology; Danvers, Mass.; #9803) with 1 mM PMSF. AlphaLISA SureFire Ultra p-Syk Tyr525/526 assay kit (PerkinElmer, ALSU-PSYK-A10OK) was used to measure pSyk levels in lysate as per manufacturer protocol. 10 μl lysate was added to 384-well OptiPlates (PerkinElmer; #6007290) and an EnVision Multilabel Plate Reader (PerkinElmer) was used to measure AlphaLISA fluorescence.
(§5) PSyk AlphaLISA fluorescence was converted to a log 2 scale. Fluorescence values from liposomes and controls were each subtracted from average fluorescence values from HBSS stimulated wells on the same plate (log 2(liposome)−log 2(HBSSave)=log 2(signal)). The result was converted back to a standard scale to measure fold change (2^log 2(signal)=fold change). Technical replicate fold changes values were averaged to obtain the fold change over background listed (pSyk FOB). Graphs represent values from independent experiments or individual human donors. Results from the screen on the HEK293 overexpressing cell lines are shown in Table 9 below and in FIG. 8A-8B. HEK293 results showing specificity for TREM2 over DAP12 expressed alone can be used to extrapolate which lipid species are likely acting as TREM2 ligands on human macrophages.

[1] = test system: primary human macrophages; assay: Liposome stimulation pSyk AlphaLISA, primary human macrophages; conditions: liposomes 30% lipid/70% PC (KLA 10%/90%)
Protocol: as §1
10 mL human blood was obtained from Blood Centers of the Pacific. Monocytes were extracted using RosetteSep Human Monocyte Enrichment Cocktail ([…] Technologies Inc.; Vancouver, BC; #15068) as per manufacturer protocols. Density gradient was performed with Ficoll-Paque Premium (GE Healthcare Life Sciences; Pittsburgh, Pa.; #17-5442-02). Isolated monocytes were resuspended at ˜1-1.3 million cells/mL and cultured for 5-6 days in RPMI, 10% Hyclone Fetal Bovine Serum, and penicillin/streptomycin supplemented with 50 ng/mL human M-CSF (Gibco, # PHC9501) in T175 tissue culture treated flasks. M-CSF was replenished every 2-3 days. Cells were washed once with PBS, 15 mL fresh medium was added, and cells were harvested by scraping. Cells were cultured overnight at a density of 100,000 cells per well on tissue culture treated 96-well plates supplemented with 10-25 ng/mL M-CSF.
as §3, §4, §5

DAP12 alone = molecular target: T2, DAP12 alone (Homo sapiens, UniProt O43914); assay: Liposome stimulation pSyk AlphaLISA, HEK293 expressing DAP12 alone; conditions: liposomes 30% lipid/70% PC (KLA 10%/90%), fold change over HBSS
T2 construct: expressed in transfected cells
Protocol: as §1, §2, §3, §4, §5

R47H TREM2 mutant = molecular target: T3, R47H TREM2 mutant (Homo sapiens, UniProt Q9NZC2, R47H); assay: Liposome stimulation pSyk AlphaLISA, HEK293 overexpressing TREM2-R47H and DAP12; conditions: liposomes 30% lipid/70% PC (KLA 10%/90%), fold change over HBSS
T3 construct: expressed in transfected cells
Protocol: as §1, §2, §3, §4, §5

T1 sequence (Q9NZC2 19-230): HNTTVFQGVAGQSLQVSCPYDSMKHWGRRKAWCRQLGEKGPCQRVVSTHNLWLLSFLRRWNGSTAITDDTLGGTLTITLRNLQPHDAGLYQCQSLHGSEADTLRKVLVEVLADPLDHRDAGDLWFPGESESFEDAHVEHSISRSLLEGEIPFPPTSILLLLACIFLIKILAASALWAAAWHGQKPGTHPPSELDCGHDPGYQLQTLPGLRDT
T1 sequence (O43914 22-113 partner): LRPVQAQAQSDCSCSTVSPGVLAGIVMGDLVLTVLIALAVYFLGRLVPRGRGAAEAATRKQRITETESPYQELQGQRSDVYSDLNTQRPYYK
T3 sequence (Q9NZC2 19-230 R47H): as the sequence (Q9NZC2 19-230) above, with R29H counted along it
T3 sequence (O43914 22-113 partner): as the sequence (O43914 22-113 partner) above
T2 sequence (O43914 22-113): as the sequence (O43914 22-113 partner) above

Compound: Lysophosphatidylserine [Lysophosphatidylserine (LPS)]
- Human TREM2 (pSyk FOB) (TREM2): 3.77 FOB
- pSyk FOB [1]: 1.78 FOB
- DAP12 alone (pSyk FOB) (DAP12 alone): 1.39 FOB
- R47H TREM2 mutant (pSyk FOB) (R47H TREM2 mutant): 3.88 FOB

Compound: Cholesteryl ester [Cholesteryl ester (CE)]
- Human TREM2 (pSyk FOB) (TREM2): 4.24 FOB
- pSyk FOB [1]: 1.62 FOB
- DAP12 alone (pSyk FOB) (DAP12 alone): 1.14 FOB
- R47H TREM2 mutant (pSyk FOB) (R47H TREM2 mutant): 10.90 FOB

Compound: N-Acyl-phosphatidylethanolamine [N-Acyl-phosphatidylethanolamine (NAPE)]
- Human TREM2 (pSyk FOB) (TREM2): 0.67 FOB
- DAP12 alone (pSyk FOB) (DAP12 alone): 0.78 FOB
- R47H TREM2 mutant (pSyk FOB) (R47H TREM2 mutant): 0.94 FOB

Compound: Ether phosphatidylcholine [Ether phosphatidylcholine (PCe)]
- Human TREM2 (pSyk FOB) (TREM2): 2.94 FOB
- pSyk FOB [1]: 1.29 FOB
- DAP12 alone (pSyk FOB) (DAP12 alone): 1.33 FOB
- R47H TREM2 mutant (pSyk FOB) (R47H TREM2 mutant): 3.97 FOB

Compound: CCCCC/C=C\C/C=C\C/C=C\C/C=C\CCCC(=O)OC(CO)CO [2-Arachidonoylglycerol (2-AG), 2-Arachidonoylglycerol]
- Human TREM2 (pSyk FOB) (TREM2): 0.68 FOB
- pSyk FOB [1]: 1.23 FOB
- DAP12 alone (pSyk FOB) (DAP12 alone): 1.11 FOB
- R47H TREM2 mutant (pSyk FOB) (R47H TREM2 mutant): 0.84 FOB

Compound: CCCCCCCCCCCCC/C=C/[C@@H](O)[C@@H](N)COP(=O)(O)O [Sphingosine-1-phosphate (SolP), Sphingosine-1-phosphate]
- Human TREM2 (pSyk FOB) (TREM2): 2.42 FOB
- pSyk FOB [1]: 2.10 FOB
- DAP12 alone (pSyk FOB) (DAP12 alone): 1.64 FOB
- R47H TREM2 mutant (pSyk FOB) (R47H TREM2 mutant): 3.94 FOB

Compound: Galactosylceramide [Galactosylceramide (GalCer)]
- Human TREM2 (pSyk FOB) (TREM2): 3.45 FOB
- pSyk FOB [1]: 1.98 FOB
- DAP12 alone (pSyk FOB) (DAP12 alone): 1.16 FOB
- R47H TREM2 mutant (pSyk FOB) (R47H TREM2 mutant): 4.65 FOB

Compound: Dihyrdoceramide [Dihyrdoceramide (DhCer)]
- Human TREM2 (pSyk FOB) (TREM2): 1.22 FOB
- DAP12 alone (pSyk FOB) (DAP12 alone): 0.84 FOB
- R47H TREM2 mutant (pSyk FOB) (R47H TREM2 mutant): 1.47 FOB

Compound: CCCCCCCCCCCCC/C=C/[C@@H](O)[C@@H](N)CO[C@@H]1O[C@H](CO)[C@H](O)[C@H](O)[C@H]1O [Galactosylsphingosine (GalSo), Galactosylsphingosine]
- Human TREM2 (pSyk FOB) (TREM2): 1.09 FOB
- DAP12 alone (pSyk FOB) (DAP12 alone): 0.71 FOB
- R47H TREM2 mutant (pSyk FOB) (R47H TREM2 mutant): 1.07 FOB

Compound: CCCCCCCCCCCCCCCC(=O)OC[C@H](COP(=O)([O-])OCC[N+](C)(C)C)OC(=O)CCCC=O [1-palmitoyl-2-(5′-oxo-valeroyl)-sn-glycero-3-phosphocholine]
- Human TREM2 (pSyk FOB) (TREM2): 0.86 FOB
- DAP12 alone (pSyk FOB) (DAP12 alone): 1.34 FOB
- R47H TREM2 mutant (pSyk FOB) (R47H TREM2 mutant): 1.57 FOB

Compound: lysoalkylacylglycerophosphocholine
- Human TREM2 (pSyk FOB) (TREM2): 1.81 FOB
- DAP12 alone (pSyk FOB) (DAP12 alone): 0.67 FOB
- R47H TREM2 mutant (pSyk FOB) (R47H TREM2 mutant): 1.46 FOB

Compound: CCCCCCCCCCCCCCCCCCCCCCCCCC(=O)N[C@@H](CO[C@H]1O[C@H](CO)[C@H](O)[C@H](O)[C@H]1O)[C@H](O)[C@H](O)CCCCCCCCCCCCCC [α-galactosylceramide (KRN7000), α-galactosylceramide]
- Human TREM2 (pSyk FOB) (TREM2): 0.79 FOB
- DAP12 alone (pSyk FOB) (DAP12 alone): 0.85 FOB
- R47H TREM2 mutant (pSyk FOB) (R47H TREM2 mutant): 0.97 FOB

Compound: CCCCCCCCCCCCCCC[C@@H](O)[C@@H](N)CO [Sphinganine]
- Human TREM2 (pSyk FOB) (TREM2): 0.76 FOB
- DAP12 alone (pSyk FOB) (DAP12 alone): 1.26 FOB
- R47H TREM2 mutant (pSyk FOB) (R47H TREM2 mutant): 1.39 FOB

Compound: alkylacylglycerophosphocholine [alkylacylglycerophosphocholine (PAF)]
- Human TREM2 (pSyk FOB) (TREM2): 1.58 FOB
- DAP12 alone (pSyk FOB) (DAP12 alone): 0.69 FOB
- R47H TREM2 mutant (pSyk FOB) (R47H TREM2 mutant): 1.41 FOB

Compound: Glucosylceramide [Glucosylceramide (GlcCer)]
- pSyk FOB [1]: 1.58 FOB

Compound: Acyl Carnitine [Acyl Carnitine (AC)]
- Human TREM2 (pSyk FOB) (TREM2): 1.17 FOB
- DAP12 alone (pSyk FOB) (DAP12 alone): 1.55 FOB
- R47H TREM2 mutant (pSyk FOB) (R47H TREM2 mutant): 1.83 FOB

Now from value to compound, other results behind:

- Human TREM2 (pSyk FOB) (TREM2): 3.69 FOB
- DAP12 alone (pSyk FOB) (DAP12 alone): 1.17 FOB
- R47H TREM2 mutant (pSyk FOB) (R47H TREM2 mutant): 3.62 FOB
Compound: Lysophosphatidic acid [Lysophosphatidic acid (LPA)]
- pSyk FOB [1]: 1.82 FOB

- Human TREM2 (pSyk FOB) (TREM2): 3.00 FOB
- DAP12 alone (pSyk FOB) (DAP12 alone): 1.57 FOB
- R47H TREM2 mutant (pSyk FOB) (R47H TREM2 mutant): 4.83 FOB
Compound: Phosphatidylethanol [Phosphatidylethanol (PEtOH)]
- pSyk FOB [1]: 1.61 FOB

- Human TREM2 (pSyk FOB) (TREM2): 5.82 FOB
- DAP12 alone (pSyk FOB) (DAP12 alone): 1.14 FOB
- R47H TREM2 mutant (pSyk FOB) (R47H TREM2 mutant): 6.05 FOB
Compound: Ganglioside GM3
- pSyk FOB [1]: 1.17 FOB

- Human TREM2 (pSyk FOB) (TREM2): 0.81 FOB
- DAP12 alone (pSyk FOB) (DAP12 alone): 1.26 FOB
- R47H TREM2 mutant (pSyk FOB) (R47H TREM2 mutant): 0.68 FOB
Compound: Oxidized phosphatidylcholine [Oxidized phosphatidylcholine (oxPC)]
- pSyk FOB [1]: 1.25 FOB

- Human TREM2 (pSyk FOB) (TREM2): 1.20 FOB
- DAP12 alone (pSyk FOB) (DAP12 alone): 0.68 FOB
- R47H TREM2 mutant (pSyk FOB) (R47H TREM2 mutant): 0.68 FOB
Compound: Diacylglycerol 34:1 [Diacylglycerol 34:1 (DG34:1)]

- Human TREM2 (pSyk FOB) (TREM2): 4.85 FOB
- DAP12 alone (pSyk FOB) (DAP12 alone): 1.42 FOB
- R47H TREM2 mutant (pSyk FOB) (R47H TREM2 mutant): 3.04 FOB
Compound: Bis(monoacylglycero)phosphate [Bis(monoacylglycero)phosphate (BMP)]
- pSyk FOB [1]: 2.19 FOB

- Human TREM2 (pSyk FOB) (TREM2): 3.89 FOB
- DAP12 alone (pSyk FOB) (DAP12 alone): 1.16 FOB
- R47H TREM2 mutant (pSyk FOB) (R47H TREM2 mutant): 4.00 FOB
Compound: Ceramide-1-phosphate [Ceramide-1-phosphate (C1P)]
- pSyk FOB [1]: 2.28 FOB

- Human TREM2 (pSyk FOB) (TREM2): 1.59 FOB
- DAP12 alone (pSyk FOB) (DAP12 alone): 1.40 FOB
- R47H TREM2 mutant (pSyk FOB) (R47H TREM2 mutant): 1.93 FOB
Compound: Dihydrosphingomyelin [Dihydrosphingomyelin (DhSM)]
- pSyk FOB [1]: 0.96 FOB

- Human TREM2 (pSyk FOB) (TREM2): 1.05 FOB
- DAP12 alone (pSyk FOB) (DAP12 alone): 0.64 FOB
- R47H TREM2 mutant (pSyk FOB) (R47H TREM2 mutant): 0.73 FOB
Compound: Diacylglycerol 38:4 [Diacylglycerol 38:4 (DG 38:4)]

- Human TREM2 (pSyk FOB) (TREM2): 1.26 FOB
- DAP12 alone (pSyk FOB) (DAP12 alone): 1.14 FOB
- R47H TREM2 mutant (pSyk FOB) (R47H TREM2 mutant): 1.47 FOB
Compound: Lysophosphatidylcholine [Lysophosphatidylcholine (LPC)]
